Reference: patent publication US6376504B1 (Parker Hughes Institute, priority 1998, dated 2002)
pEC50, pIC50: −log10 of the molar value. Entries after “also recorded” stand apart in the source; their conditions may differ. Read-outs that look alike come from different tables or passages of the source.

Key:
[1] = test system: human sperm acrosomal membrane; assay: Sperm acrosomal membrane integrity, confocal laser scanning microscopy (FITC-Pisum sativum lectin); type: cell-based; settings: for acrosome status in confocal images: 500 μM, 6 hours
Procedure: The percentages of sperm with an intact acrosome following a 6 hour treatment with and without increasing concentrations (31.2 μM to 500 μM) o f th e three NNIs (S-DABO, F-PBT and D-PBT in comparison to N-9 were evaluated by CLSM. Ethanol permeabilized and airdried sperm smears were stained sequentially with the three fluorescent markers, FITC-Pisum sativum lectin, TOTO-3 iodide, and Nile red (Molecular Probes, Eugene, Oreg.) because their targets are different (acrosome, nucleus, and membrane lipid respectively). Samples were examined under a BioRad MRC-1024 Laser Scanning Confocal Microscope (BioRad Laboratories, Hercules, Calif.) equipped with a krypton/argon mixed gas laser (excitation lines 488, 568, and 647 nm) and mounted on a Nikon Eclipse E800 series upright microscope. The fluorescence emission of fluorescein, TOTO-3 iodide, and Nile red from the acrosomal region, nucleus, and the plasma membrane of sperm after ethanol permteabilization were si multan eously detected using the […], and 680 DF32 emission/filter, respectively. Confocal images were obtained using a Nikon 100×(NA 1.35) objective lens and Kalman collection filter. Digitized images were saved on a Jaz disk (Iomega Corporation, Roy, UT) and process ed using Lasersharp Bio-Rad) with the Adobe Photoshop software (Adobe Systems, Mountain View, Calif.). Final images were printed on a Fuji Pictrography 3000 (Fuji Photo Film Co., Tokyo, Japan) color printer.

[2] = test system: normal human ectocervical epithelial cells (CrEC 4627); assay: MTT cell proliferation assay, ectocervical epithelial cells; type: cell-based; settings: for pIC50: Homo sapiens, Epithelial cell, read-out: IC50 ectocervical epithelial cells; for SI (Selectivity Index) ectocervical epithelial cells: ratio of IC50 to EC50 (sperm)
Procedure: (§1) Normal human ectocervical (CrEC 4627) and endocervical epithelial cells (CrEC-En 4312) were obtained from Clonetics, (San Diego, Calif.) and propagated in T-150 cm^2 tissue culture flasks (Corning Corp., Corning, N.Y.) in small airway epithelial cell basal medium (Clonetics) supplemented with 50 μg/ml BPE, 0.5 μg/ml hydrocortisone, 0.5 μg/ml hEGF, 0.1 μg/ml retinoic acid, […] trasferrin, 5 μg/ml insulin, 5 μg/ml epinephrine, and 0.5 mg/ml BSA-FAF.
(§2) Briefly, cells were harvested with 0.125% (w/v) trypsin-0.02% EDTA (GIBCO) from exponential-phase maintenance cultures and centrifuged (300 g×5 minutes). After suspension and counting, cells were dispensed within triplicate 96-well tissue culture plates in 100 μl volumes. […] NNIs were reconstituted in DMSO to a concentration of 100 mM. […] Control wells with medium containing 0.25% of DMSO alone were included as controls. Culture plates were then incubated for 24 hour before adding 10 μl of MTT solution (5 mg/ml in PBS) to each well. Wells containing only medium and MTT were used as control for each plate. The tetrazolium/formazan reaction was allowed to proceed for 4 hours at 37° C., and then 100 μl of the solubilization buffer (10% sodium dodecyl sulfate in 0.1% HCl) was added to all wells and mixed thoroughly to dissolve the dark blue formazan crystals.
(§3) After an overnight incubation at 37° C., the optical densities (OD) at 540 nm were measured using a 96-well multiscanner autoreader with the solubilization buffer serving as blank, To translate the OD540 values into the number of live cells in each well, the OD540 values were compared to those on standard OD540-versus-cell number curves generated for each cell line. The percent survival was calculated using the formula: % survival=Live cell number [test]/Live cell number [control]×100. All assays were run in triplicate and the results were expressed as IC50 values. The IC50 was defined as the concentration required for 50% reduction in cell survival.

human sperm [3] = assay: Time-dependent sperm immobilization and sperm kinematic parameters, CASA; type: cell-based; settings: 1 mM
Procedure: To test the effect of duration of incubation on SIA of spermicidal NNIs, motile fractions of sperm (10^7/ml) were incubated at 37° C. in BWW-0.3% BSA in the presence of 1 mM F-PBT, S-DABO in 1% DMSO or 1% DMSO alone as vehicle control. At timed intervals of 5 or 10 minutes, duplicate aliquots (4-μl) were transferred to two 20 μm Microcell chambers (Conception Technologies) and sperm motility was assessed by CASA for a duration of 60 minutes.
(§4) For CASA, 4 μl of each sperm suspension were loaded into two 20-μm Microcell chambers in a counting chamber at 37° C. At least 5-8 fields per chamber were scanned for analysis using a Hamilton Thome Integrated Visual Optical System (IVOS), version 10 instrument (Hamilton Thorne Research Inc., Danvers, Mass.). Each field was recorded for 30 seconds. The computer calibrations were set at 30 frames at a frame rate of 30/second. Other settings were as follows: minimum contrast 8; minimum size 6; low-size gate, 1.0; high-size gate, 2.9; low-intensity gate, 0.6; high-intensity gate, 1.4; phase-contrast illumination; low path velocity at 10 μm/s, and threshold straightness at 80%; and magnification factor, 1.95.
(§5) The sperm kinematics parameters that were determined included numbers of motile (MOT) and progressively (PRG) motile sperm; curvilinear velocity (VCL; a measure of the total distance traveled by a given sperm during the acquisition divided by the time elapsed); average path velocity (VAP; the spatially averaged path that eliminates the wobble of the sperm head), straight line velocity (VSL; the straight-line distance from beginning to end of track divided by time taken), beat cross frequency (BCF; frequency of sperm head crossing sperm average path), the amplitude of lateral head displacement (ALH; the mean width of sperm head oscillation), and the derivatives, straightness (STR=VSL/VAP×100) and linearity (LIN=VSL/VCL×100; departure of sperm track from a straight line). Data from each individual cell track were recorded and analyzed. At least 200 motile sperm were a nalyzed for each aliquot sampled.

HTLVIIIB strain of HIV-1 = assay: p24 antigen production in HIV-1 (HTLVIIIB) infected PBMCs; settings: Human immunodeficiency virus 1, PBMC
Procedure: The HTLVIIIB strain of HIV-1 was propagated in CCRF-CEM cells and the virus stocks obtained from cell-free supernatants of infected cells were titered using MT-2 cells. Cell-free supernatants were harvested and frozen in 1 ml aliquots at −70° C. Titration of the stock virus was performed using MT-2 cells and the cytopathic effect of the virus used in this study was typical of HIV-1 on MT-2 cells.
Cells were cultured for 7 days in 96-well microtiter plates (100 μl/well; 2×10^6 cells/ml, triplicate wells) in the presence and absence of various concentrations (0.001 μM to 100 μM) of the anti-HIV agents. Cells from non-infected controls were handled in the same way except the virus was omitted from the preparation. Aliquots of culture supernatants were removed from the wells on the 7th day after infection for RT assays and p24 antigen, as previously described in the following references: Erice et al., ANTIMICROB AG CHEMOTHER, 37:835-838 (1993); Uckun et al., ANTIMICROB AGENTS CHEMOTHER, 42:383-388 (1998); and Zarling et al., Nature 347:92-95 (1990).
The p24 enzyme immunoassay was the unmodified kinetic assay available commercially (Coulter Corporation/Immunotech, Inc., Westbrook, Me.). The assay uses a murine monoclonal antibody to the HIV core protein coated onto microwell strips to which the antigen present in the test culture supernatant sample binds. […] The plates were read on a ELISA reader (Molecular Devices, Sunnyvale, Calif.) at 650 nm and p24 levels, expressed as ng/ml, were calculated against known standards supplied by Coulter/Immunotech, Inc. Percent viral inhibition was calculated by comparing the p24 values for the test substance-treated infected cells with the p24 values for untreated infected cells (i.e., virus controls).
Percent inhibition of virus replication was calculated by comparing the p24 antigen values or RT activity from the test drug-treated infected cells with p24 antigen values or RT activity from untreated infected cells. The anti-HIV activity of compounds was expressed as the IC50 values, calculated from the dose-response curves, and defined as the drug concentration that decreases the HIV-1 RT activity or p24 antigen production in HIV-1 infected PBMCs, by 50%.

[4] = test system: normal human endocervical epithelial cells (CrEC-En 4312); assay: MTT cell proliferation assay, endocervical epithelial cells; type: cell-based; settings: for pIC50: Homo sapiens, Epithelial cell, read-out: IC50 endocervical epithelial cells; for SI (Selectivity Index) endocervical epithelial cells: ratio of IC50 to EC50 (sperm)
Procedure: as §1, §2, §3

human sperm [5] = assay: Sperm immobilizing activity, concentration-dependent, CASA; type: cell-based; settings: for pEC50: Homo sapiens, Sperm, read-out: Spermicidal activity EC50 (sperm motility); for effect on sperm motility: concentrations as high as 500 μM
Procedure: All donor sperm specimens were obtained after informed consent and in compliance with the guidelines of the Hughes Institute Institutional Review Board. Motile sperm (≧10×10^6/ml), were suspended in 1 ml of Biggers, whitten, and Whittingam's medium (BWW) containing 25 mM HEPES (Irvine Scientific, Santa Ana, Calif.), and 0.3% BSA in the presence and absence of serial two-fold dilutions of test substance (500 μM to 31.2 μM) in 1% DMSO. The stock solutions of NNIs were prepared in DMSO (100 mM) and diluted in assay medium to yield the desired concentrations. Corresponding volume of DMSO (1%) was added to control tubes. N-9 was diluted in BWW-0.3% BSA (pH 7.4) to yield the desired concentrations (31.2 μM to 500 μM). After 3 hours of incubation at 37° C., the percentage of motile sperm was evaluated by CASA by procedures as described in D'Cruz et al., BIOL REPROD, 58:1515-1526, (1998); and D'Cruz et al., MOL HUM REPROD, 4:683-693 (1998). The percent motilities were compared with sham-treated control suspensions of motile sperm. The spermicidal activity of test compounds was expressed as the EC50 (the final concentration of the compound in medium that decreases the proportion of motile sperm by 50%).
as §4, §5

[6] = target: purified recombinant HIV RT (Human immunodeficiency virus type 1 group M subtype B, UniProt P04585); assay: RT inhibitory activity against purified recombinant HIV RT (cell-free Quan-T-RT scintillation proximity assay)
Procedure: In the assay, a DNA/RNA primer/template is bound to SPA beads via a biotin/streptavidin linkage. The primer DNA is a 16-mer oligo(T) which has been annealed to a poly(rA) template. The primer/template is bound to a streptavidin-coated SPA bead. ^3H-TTP is incorporated into the primer by reverse transcription. In brief, ^3H-TTP, at a final concentration of 0.5 Ci/sample was diluted in RT assay buffer (49.5 mM Tris-HCl, pH 8.0, 80 mM KCl, 10 mM MgCl2, 10 mM DTT, 2.5 mM EGTA, 0.05% Nonidet-P-40), and added to annealed DNA/RNA bound to SPA beads. The compound being tested was added to the reaction mixture at 0.001 μM-100 μM concentrations. […] The reaction was stopped by addition of 0.2 ml of 120 mM EDTA. The samples were counted in an open window using a Beckman LS 7600 instrument (Beckman Instruments, Fullerton, Calif.).

[7] = 168 h, read-out: IC50 p24 (HTLVIIIB)
[8] = in Homo sapiens, read-out: IC50[p24], HIV replication in PBMCs
[9] = 3 hours incubation at 37° C., CASA

**Q.** `Fc1ccccc1CCNC(=S)Nc1ccc(Br)cn1` [F-PBT, N-[2-(2-fluorophenethyl)]-N′-[2-(5-bromopyridyl)]-thiourea] was tested. Which “acrosome status in confocal images” value [1] did it give?
**A.** The value was “acrosomes remained intact; also recorded: None of the FIGS. 5B, 5C, or 5D show increased acrosome reaction”.

**Q.** What about the pIC50 ([2]; 24 h) of the same molecule?
**A.** The pIC50 was < 3.00.

**Q.** What about the pIC50 [2] of the same molecule?
**A.** The pIC50 was < 3.00.

**Q.** What about the “SI (Selectivity Index) ectocervical epithelial cells” value [2] of the same molecule?
**A.** The value was >6.8.

**Q.** What about the “time required for 50% motility loss of progressively motile sperm” value (human sperm [3]; 37° C.) of the same molecule?
**A.** The value was 10 min.

**Q.** And the “beat cross frequency (BCF) and amplitude of lateral head displacement (ALH)” value (human sperm [3]; time-dependent, 60 minutes)?
**A.** Its value is “relatively stable”.

**Q.** What about the “linearity (LIN) and straightness (STR)” value (human sperm [3]; time-dependent, 60 minutes) of the same molecule?
**A.** Its value is “remained relatively constant”.

**Q.** And the “movement characteristics of surviving sperm (VCL, VAP, VSL)” value (human sperm [3]; time-dependent, 60 minutes)?
**A.** The value was “significant changes”.

**Q.** What about the pIC50 (HTLVIIIB strain of HIV-1; [7]) of the same molecule?
**A.** Its pIC50 is > 9.00.

**Q.** And the pIC50 (HTLVIIIB strain of HIV-1; [8])?
**A.** The pIC50 was > 9.00.

**Q.** And the pIC50 ([4]; 24 h)?
**A.** Its pIC50 is < 3.00.

**Q.** And the pIC50 [4]?
**A.** Its pIC50 is < 3.00.

**Q.** And the “SI (Selectivity Index) endocervical epithelial cells” value [4]?
**A.** The value was >6.8.

**Q.** What about the “spermicidal activity (in words)” value (human sperm [5]) of the same molecule?
**A.** Its value is “concentration- and time-dependent spermicidal activity”.

**Q.** What about the pEC50 (human sperm [5]; 3 h) of the same molecule?
**A.** Its pEC50 is 3.83.

**Q.** What about the pIC50 [6] of the same molecule?
**A.** The pIC50 was 6.40.

**Q.** For `CCCCCCCCCc1ccc(OCCOCCOCCOCCOCCOCCOCCOCCOCCO)cc1` [Compound N-9, nonoxynol-9, reference compound], which “acrosome status in confocal images” value [1] is on record?
**A.** Its value is “no green fluorescence; also recorded: only acrosome-reacted sperm”.

**Q.** What about the “acrosomal staining (FIG. 5A)” value ([1]; after 6 hours of incubation) of the same molecule?
**A.** The value was “complete loss of acrosomal staining”.

**Q.** What about the pIC50 ([2]; 24 h) of the same molecule?
**A.** The pIC50 was 4.82.

**Q.** And the “SI (Selectivity Index) ectocervical epithelial cells” value [2]?
**A.** Its value is 0.18.

**Q.** What about the pIC50 (HTLVIIIB strain of HIV-1; [7]) of the same molecule?
**A.** Its pIC50 is 5.66.

**Q.** And the pIC50 ([4]; 24 h)?
**A.** The pIC50 was 4.96.

**Q.** And the “SI (Selectivity Index) endocervical epithelial cells” value [4]?
**A.** Its value is 0.13.

**Q.** And the pEC50 (human sperm [5]; 3 h)?
**A.** The pEC50 was 4.09.

**Q.** What does the source list for `S=C(NCCc1ccccn1)Nc1ccc(Br)cn1` [Trovirdine, reference compound]?
**A.** pIC50 (HTLVIIIB strain of HIV-1; [7]): 8.15; effect on sperm motion parameters (PRG, VCL, VAP, VSL, STR, LIN, BCF, ALH) (human sperm [5]; CASA): did not alter the sperm motion parameters; pEC50 (human sperm [5]; 3 h): < 3.30; effect on sperm motility (human sperm [5]): did not affect sperm motility

**Q.** Which results are given for `CSCSc1nc(Cc2ccccc2)c(C(C)C)c(=O)[nH]1` [S-DABO, 5-isopropyl-2-[(methylthiomethyl)thio]-6-(benzyl)-pyrimidin-4-(1H)-one]?
**A.** acrosome status in confocal images [1]: acrosomes remained intact; also recorded: None of the FIGS. 5B, 5C, or 5D show increased acrosome reaction; pIC50 ([2]; 24 hours treatment, MTT): < 2.40; pIC50 ([2]; MTT dose survival curves): < 2.40; SI (Selectivity Index) ectocervical epithelial cells [2]: >19.8; pIC50 (HTLVIIIB strain of HIV-1; [7]): > 9.00; pIC50 (HTLVIIIB strain of HIV-1; [8]): > 9.00; pIC50 ([4]; 24 hours treatment, MTT): < 2.40; pIC50 ([4]; MTT dose survival curves): < 2.40; SI (Selectivity Index) endocervical epithelial cells [4]: >19.8; spermicidal activity (in words) (human sperm [5]): concentration- and time-dependent spermicidal activity; pEC50 (human sperm [5]; [9]): 3.69; pIC50 [6]: 5.21

**Q.** How did the pIC50 (HTLVIIIB strain of HIV-1; [7]) turn out when `COc1ccc(OC)c(CCNC(=S)Nc2ccc(Br)cn2)c1` [D-PBT, N-[2-(2,5-dimethoxyphenethyl)]-N′-[2-(5-bromopyridyl)]-thiourea] was run?
**A.** Its pIC50 is > 9.00.

**Q.** What about the pIC50 (HTLVIIIB strain of HIV-1; [8]) of the same molecule?
**A.** The pIC50 was > 9.00.

**Q.** And the “effect on sperm motion parameters (PRG, VCL, VAP, VSL, STR, LIN, BCF, ALH)” value (human sperm [5]; CASA)?
**A.** Its value is “did not alter the sperm motion parameters”.

**Q.** And the pEC50 (human sperm [5]; [9])?
**A.** The pEC50 was < 3.30.

**Q.** And the “effect on sperm motility” value (human sperm [5])?
**A.** The value was “did not affect sperm motility”.

**Q.** And the pIC50 [6]?
**A.** Its pIC50 is 7.00.
